Values quoted from earlier work in patent publication US8450380B2, “Method for implementing active ingredients in order to protect them and optimize their delivery method” (Coatex S.A.S., priority 2007, dated 2013).

Conditions: general statement

O=c1c2cc(Cl)ccc2[nH]c2cc3c(=O)c4cc(Cl)ccc4[nH]c3cc12 [Magenta Cinquasia RT-235-D, 2,9 dichloro-5,12 dihydroquino [2,3-b] acridine-7,14 dione]
Solubility: non-hydrosoluble
